In patent US9719982B2, “Devices comprising muscle thin films and uses thereof in high throughput assays for determining contractile function” (President and Fellows of Harvard College, priority 2009, dated 2017):
Positions of bridges follow the written chain, without caps; N, C: chain ends. No end group written: not given here.

Key:
[1] = tested on: Human umbilical artery vascular smooth muscle; assay: Vascular muscular thin film (vMTF) contractility assay, films adhered to PTFE coated posts; format: cell-based
Procedure: Human umbilical artery vascular smooth muscle was seeded on thin films at 300 cells/mm^2 in complete M199 medium (M199 supplemented with 10% fetal bovine serum (FBS), penicillin, streptomycin, L-glutamine, glucose and vitamin B12). The tissue was cultured in complete M199 for 48 hours, with a single media change at 24 hours. After 48 hours, the cells were serum starved for an additional 48 hours (M199 supplemented with penicillin, streptomycin, L-glutamine, glucose and vitamin B12, but no FBS).
Muscle thin films were transferred to fresh Tyrode's solution in the testing dish (FIG. 1), which is maintained at 37° C. by a peltier heating system. Films were adhered to Teflon coated posts (FIG. 3) by moving them into close contact using tweezers. The films were imaged using a stereomicroscope outfitted with fluorescent imaging capability. Both brightfield and fluorescent images were captured every thirty seconds. In the experiment shown in FIG. 4, four films were treated with 50 nM endothelin-1 followed by 100 μM HA-1077 (fasudil).
Quantification and analysis of thin film motion was performed using ImageJ (NIH) and MATLAB software. Thresholded fluorescent images (FIG. 4 B) were fit to circles whose radii of curvature could be measured (FIG. 4C). Using elasticity theory, the contraction stress necessary to induce the measured changes in curvature were calculated (FIG. 4D).
Human umbilical artery VSMCs were engineered as anisotropic monolayers aligned parallel to the long axis of the MTF. The vMTFs were adhered to PTFE coated posts via hydrophobic interaction with the PDMS. This arrangement allowed multiple vMTFs to be viewed concurrently. Here, eight vMTFs were tested using this assay. The fluorosphere doped PDMS could be viewed using fluorescent stereomicroscopy. In this arrangement, the films are easily approximated as circular arcs.
The vMTFs were treated with the endothelium-produced vasoconstrictor endothelin-1 followed by the rho-kinase inhibitor HA-1077, in order to calculate all of the relevant stress states of arterial muscle. […] This value represents the resting tension of the tissue. […] The HA-1077 dosage is sufficient to inhibit all myosin light chain phosphorylation, so this value represents the residual stress, or the stress generated by the cytoskeletal elements not involved in the contractile apparatus, but which remains after all other loads are removed.

[2] = tested on: vascular smooth muscle cells; assay: Horizontal muscular thin film (hMTF) contractility assay with vascular smooth muscle cells; format: cell-based
Procedure: FIG. 12 contrasts the use of fluorescent microscopy and the use of brightfield stereo microscopy of vascular smooth muscle (VSM) horizontal MTFs during an assay of the invention as described in Example 5. The top row depicts fluorescent microscopy photographs of VSM horizontal MTFs comprising fluorescent beads embedded in the PDMS film. […] (A) Photographs taken 5 minutes after the start of the experiment, the films are slightly bent up from the glass due to the initial contraction of VSM. (B) Photographs taken 20 minutes after addition of the vasoconstrictor (Endothilin-1), which causes the VSM to contract and the films to bend up from the glass. […] Actuation and observation of multiple MTFs was carried out in a physiologic solution (e.g., normal Tyrodes solution). The horizontal […]) fabricated with vascular smooth muscle cells in the presence of fluorescent beads were treated with the endothelium-produced vasoconstrictor endothelin-1 (ET-1) followed by the rho-kinase inhibitor HA-1077. […] Quantification and analysis of thin film motion was performed using ImageJ (NIH) and MATLAB software. From the thresholded fluorescent images the length of the projection of the film on the horizontal plane was tracked throughout the contraction and the radius of curvature calculated. Using elasticity theory, the contraction stress necessary to induce the measured changes in curvature were calculated.

Row | Molecule | change in radius of curvature of vMTFs ([1]; 100 μM HA-1077 following ET-1) | stress after inhibition of contraction (residual stress) ([1]; treatment with 100 μM HA-1077 following 50 nM ET-1) | change in radius of curvature of hMTFs ([2]; 100 mM HA-1077 following ET-1) | effect on VSM horizontal MTFs (FIG. 12C) ([2]; 30 minutes after addition of rho-kinase inhibitor, films lie flat on the glass) | change in radius of curvature of vMTFs ([1]; 50 nM ET-1) | increase in cell generated stress ([1]; vMTFs stimulated with 50 nM ET-1 at time 0, basal stress 17.1±1.7 kPa) | change in radius of curvature of hMTFs ([2]; 50 nM ET-1 at time 0) | effect on VSM horizontal MTFs (FIG. 12B) ([2]; 20 minutes after addition of the vasoconstrictor, films bend up from the glass)
1 | O=S(=O)(c1cccc2cnccc12)N1CCCNCC1 [HA-1077, fasudil] | rapid increase in radius of curvature | 3.1±0.8 kPa | rapid increase in radius of curvature | completely relax |  |  |  | 
2 | endothelin-1 (CSCSSLMDKECVYFCHLDIIW; disulfide 1-15, 3-11; ends not checked; UniProt P05305 53-73, looked up) [ET-1, endothelium-produced vasoconstrictor] |  |  |  |  | decrease in their radii of curvature | 5.06±0.75 kPa | decrease in their radii of curvature | contract
